Measurements from patent US20040248897A1, “Substituted N-acylaniline derivatives, the preparation thereof, and their use as pharmaceutical compositions” (Boehringer Ingelheim Pharma GmbH & Co. KG, priority 2001, published 2004).

Tested on: human citrated plasma
Assay: aPTT time prolongation in human citrated plasma (Biomatic B10 coagulometer)
Assay type: biochemical
Details: effective concentration at which the aPTT time is double compared with the control, 37° C.
Protocol: were investigated for their effect on prolonging the aPTT time as follows:
Materials: plasma, from human citrated blood;
PTT reagent, Boehringer Mannheim (524298);
Calcium solution (0.025 mol/L), Behring Werke, Marburg (ORH 056/57),
Diethylbarbiturate acetate buffer, Behring Werke, Marburg (ORWH 60/61); and
Biomatic B10 coagulometer, Desaga, Wiesloch.
The aPTT time was determined using a Biomatic B10 coagulometer made by Messrs. Desaga.
The test substance was placed in the test tubes prescribed by the manufacturer with 0.1 mL of human citrated plasma and 0.1 mL of PTT reagent. The mixture was incubated for three minutes at 37° C. The clotting reaction was started by the addition of 0.1 mL of calcium solution. The time is measured using the apparatus from the addition of the calcium solution up to the clotting of the mixture. Mixtures to which 0.1 mL of DBA buffer had been added were used as the controls.
According to the definition, a dosage-activity curve was used to determine the effective concentration of the substance at which the aPTT time is double compared with the control.

Compound: Cc1cc(C(=O)N2CCCC2C)c(C)cc1NC(=O)CNc1ccc(C(=N)N)cc1 (centres unmarked) [A, 4-{N-[2,5-dimethyl-4-(2-methylpyrrolidinocarbonyl)phenylaminocarbonylmethyl]-amino}benzamidine]
- aPTT time (ED200 in μM): 0.65 µM

Compound: Cc1cc(C(=O)C(C)C)c(C)cc1NC(=O)CNc1ccc(C(=N)N)cc1 [B, 4-[N-(2,5-dimethyl-4-isopropylcarbonylphenylaminocarbonylmethyl)amino]benzamidine]
- aPTT time (ED200 in μM): 0.67 µM
